# Laboratory results as given in patent US10441663B2, “Methods for treating cancer” (Bicycle Therapeutics Limited, priority 2016, dated 2019).
# *1 amine or outer side, *2 acyl side, *3 side chain or, on linkers, in order; H or OH if unused. Where a SMILES comes first, the peptide text is derived from it. Bridges are numbered along the chain shown (N, C = ends). [ ]: non-standard residue; d: D form. The star is where a group is joined. X1 = COc1cc2cc(c1Cl)N(C)C(=O)C[C@H](OC(=O)[C@H](C)N(C)C(=O)CCSSC(C)CCC(=O)*)[C@]1(C)O[C@H]1[C@H](C)[C@@H]1C[C@@](O)(NC(=O)O1)[C@H](OC)/C=C/C=C(\C)C2; 1Nal = N[C@@H](Cc1cccc2ccccc12)C(=O)O; TBMB = c1c(C[*:1])cc(C[*:3])cc1C[*:2]; Tle = CC(C)(C)[C@H](N)C(=O)O; βAla = NCCC(=O)O; Sar = CNCC(=O)O
# Test system: HCT-15 xenograft
# Assay: In vivo efficacy of BT1718 in HCT-15 xenograft
# Design: species or system Mus Musculus
# Description: The objective of this study was to evaluate the in vivo anti-tumor efficacy of BT1718in treatment of HT1080, NCI-H292, NCI-H1975, MDA-MB-231, HCC1806, RPMI2650, HCT-15, HT-29 and SNU-16 xenograft in BALB/c nude mice.
# The HT1080, NCI-H292, NCI-H1975, MDA-MB-231, HCC1806, RPMI2650, HCT-15, HT-29 and SNU-16 tumor cells were maintained in vitro as a monolayer culture in medium supplemented with 10% heat inactivated fetal bovine serum at 37° C. in an […]. The tumor cells will be routinely subcultured twice weekly by trypsin-EDTA treatment. The cells growing in an exponential growth phase will be harvested and counted for tumor inoculation.
# Mouse was inoculated subcutaneously at the right flank with tumor cells for tumor development. The animals were randomized and treatment was started when the average tumor reaches certain volume for the efficacy study, the inoculating cell amounts and starting tumor size were shown as below in Table 9. The test article administration and the animal numbers in each group were shown in the experimental design in Table 10.
# All the procedures related to animal handling, care and the treatment in the study were performed according to the guidelines of the Association for Assessment and Accreditation of Laboratory Animal Care (AAALAC). At the time of routine monitoring, the animals were daily checked for any effects of tumor growth and treatments on normal behavior such as mobility, food and water consumption (by looking only), body weight gain/loss (body weights were measured every day), eye/hair matting and any other abnormal effect as stated in the protocol. Death and observed clinical signs were recorded on the basis of the numbers of animals within each subset.
# The major endpoint was to see if the tumor growth could be delayed or mice could be cured. Tumor size was measured three times weekly in two dimensions using a caliper, and the volume was expressed in mm^3 using the formula: V=0.5 a×b^2 where a and b are the long and short diameters of the tumor, respectively. The tumor size was then used for calculations of T/C value. The T/C value (in percent) is an indication of antitumor effectiveness; T and C are the mean volumes of the treated and control groups, respectively, on a given day.
# TGI was calculated for each group using the formula: TGI (%)=[1−(Ti−T0)/(Vi−V0)]×100; Ti is the average tumor volume of a treatment group on a given day, T0 is the average tumor volume of the treatment group on the day of treatment start, Vi is the average tumor volume of the vehicle control group on the same day with Ti, and V0 is the average tumor volume of the vehicle group on the day of treatment start.
# Summary statistics, including mean and the standard error of the mean (SEM), are provided for the tumor volume of each group at each time point.
# Statistical analysis of difference in tumor volume among the groups was conducted on the data obtained at the best therapeutic time point after the final dose.
# A one-way ANOVA was performed to compare tumor volume among groups, and when a significant F-statistics (a ratio of treatment variance to the error variance) was obtained, comparisons between groups were carried out with Games-Howell test. All data were analyzed using Prism. P<0.05 was considered to be statistically significant.
compound,measurement,setting,value
COc1cc2cc(c1Cl)N(C)C(=O)C[C@H](OC(=O)[C@H](C)N(C)C(=O)CCSSC(C)CCC(=O)NCCC(=O)N(C)CC(=O)N(C)CC(=O)N(C)CC(=O)N(C)CC(=O)N(C)CC(=O)N(C)CC(=O)N(C)CC(=O)N(C)CC(=O)N(C)CC(=O)N(C)CC(=O)N[C@@H](C)C(=O)N[C@H]1CSCc3cc4cc(c3)CSC[C@H](NC(=O)[C@@H](C)NC(=O)[C@H](Cc3cccc5ccccc35)NC(=O)[C@H](CCC(=O)O)NC(=O)[C@H](CC(N)=O)NC(=O)[C@@H](C)NC1=O)C(=O)N[C@@H](CCC(=O)O)C(=O)N[C@@H](CC(=O)O)C(=O)N[C@@H](Cc1ccccc1)C(=O)N[C@@H](Cc1ccc(O)cc1)C(=O)N[C@@H](CC(=O)O)C(=O)N[C@@H](C(C)(C)C)C(=O)N[C@H](C(N)=O)CSC4)[C@]1(C)O[C@H]1[C@H](C)[C@@H]1C[C@@](O)(NC(=O)O1)[C@H](OC)/C=C/C=C(\C)C2 (stereo partly drawn) [BT1718] ({X1-βAla}-[Sar][Sar][Sar][Sar][Sar][Sar][Sar][Sar][Sar][Sar]AC[dA]NE[1Nal][dA]CEDFYD[Tle]C-NH2; linker 12-18-25 via TBMB (inferred)),Body Weight,"1 mpk biw, day 0",22.2 ± 0.5 g
same,Tumor Volume,"1 mpk biw, day 0",157 ± 6 mm^3
same,Body Weight,"1 mpk biw, day 2",21.8 ± 0.3 g
same,Tumor Volume,"1 mpk biw, day 2",174 ± 9 mm^3
same,Body Weight,"1 mpk biw, day 4",21.6 ± 0.6 g
same,Tumor Volume,"1 mpk biw, day 4",207 ± 14 mm^3
same,Body Weight,"1 mpk biw, day 7",22.3 ± 0.5 g
same,Tumor Volume,"1 mpk biw, day 7",385 ± 19 mm^3
same,Body Weight,"1 mpk biw, day 9",21.9 ± 0.3 g
same,Tumor Volume,"1 mpk biw, day 9",585 ± 26 mm^3
same,Body Weight,"1 mpk biw, day 11",21.9 ± 0.5 g
same,Tumor Volume,"1 mpk biw, day 11",937 ± 70 mm^3
same,Body Weight,"1 mpk biw, day 14",22.1 ± 0.5 g
same,Tumor Volume,"1 mpk biw, day 14",1238 ± 36 mm^3
same,Body Weight,"3 mpk biw, day 0",21.6 ± 0.5 g
same,Tumor Volume,"3 mpk biw, day 0",157 ± 6 mm^3
same,Body Weight,"3 mpk biw, day 2",21.4 ± 0.2 g
same,Tumor Volume,"3 mpk biw, day 2",140 ± 7 mm^3
same,Body Weight,"3 mpk biw, day 4",21.6 ± 0.2 g
same,Tumor Volume,"3 mpk biw, day 4",195 ± 26 mm^3
same,Body Weight,"3 mpk biw, day 7",22.7 ± 0.4 g
same,Tumor Volume,"3 mpk biw, day 7",389 ± 47 mm^3
same,Body Weight,"3 mpk biw, day 9",22.2 ± 0.4 g
same,Tumor Volume,"3 mpk biw, day 9",581 ± 54 mm^3
same,Body Weight,"3 mpk biw, day 11",22.2 ± 0.5 g
same,Tumor Volume,"3 mpk biw, day 11",901 ± 79 mm^3
same,Body Weight,"3 mpk biw, day 14",22.3 ± 0.6 g
same,Tumor Volume,"3 mpk biw, day 14",1180 ± 143 mm^3
same,Body Weight,"10 mpk biw, day 0",22.2 ± 0.3 g
same,Tumor Volume,"10 mpk biw, day 0",157 ± 11 mm^3
same,Body Weight,"10 mpk biw, day 2",21.2 ± 0.2 g
same,Tumor Volume,"10 mpk biw, day 2",130 ± 7 mm^3
same,Body Weight,"10 mpk biw, day 4",20.2 ± 0.5 g
same,Tumor Volume,"10 mpk biw, day 4",138 ± 14 mm^3
same,Body Weight,"10 mpk biw, day 7",21.7 ± 0.3 g
same,Tumor Volume,"10 mpk biw, day 7",265 ± 16 mm^3
same,Body Weight,"10 mpk biw, day 9",19.9 ± 0.3 g
same,Tumor Volume,"10 mpk biw, day 9",342 ± 47 mm^3
same,Body Weight,"10 mpk biw, day 11",20.3 ± 0.7 g
same,Tumor Volume,"10 mpk biw, day 11",562 ± 73 mm^3
same,Body Weight,"10 mpk biw, day 14",20.8 ± 0.8 g
same,Tumor Volume,"10 mpk biw, day 14",880 ± 89 mm^3
same,Best response at 10 mg/kg,"HCT-15, 10 mg/kg",Growth delay
same,TGI,"HCT-15, 1 mpk, biw, day 14",−0.9%
same,Tumor Volume,"HCT-15, 1 mpk, biw, day 14",1238 ± 36 mm^3
same,TGI,"HCT-15, 3 mpk, biw, day 14",4.6%
same,Tumor Volume,"HCT-15, 3 mpk, biw, day 14",1180 ± 143 mm^3
same,TGI,"HCT-15, 10 mpk, biw, day 14",32.5%
same,Tumor Volume,"HCT-15, 10 mpk, biw, day 14",880 ± 89 mm^3
same,Minimally Effective Dose IV BIW,"HCT-15, dose leading to tumor-stasis",>10 mg/kg
same,anti-tumor activity,"mouse, in vivo",did not show obvious anti-tumor activity
